Reference: US9890147B2 (BAYER PHARMA AKTIENGESELLSCHAFT, priority 2012, dated 2018)

Assays:
[1] = target: T1, BRD4 (BD1) (Homo sapiens, UniProt O60885); assay: Binding assay BRD4/acetylated peptide H4 (TR-FRET protein-protein interaction assay)
T1 construct: with relatively long constructs also being possible, preferably amino acids 44-168; made in house; host or cells: E. coli
Procedure, shortened: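 Displacement of biotin-Ac-H4 peptide from His6-tagged BRD4(BD1), final usually 10 nM, read as Eu-streptavidin to anti-His-XL665 TR-FRET (665/620 nm). Compounds tested at 11 doses up to 20 μM in duplicate, pH 7.5 HEPES, 22 °C then 4 °C incubation; IC50 by 4-parameter regression.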

[2] = test system: MOLM-13 cells; assay: Cell proliferation assay (alamarBlue), MOLM-13; type: cell-based; settings: Homo sapiens, 96 hours incubation, inhibition of cell proliferation
Procedure, shortened: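 IC50 = concentration giving 50% growth inhibition relative to buffer-treated cells, after subtracting baseline fluorescence taken before dosing. Compound applied at 1E-5 to 1E-8 M for 96 h at 37 °C in RPMI1640 with 10% FCS; alamarBlue signal at 530/590 nm.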

[3] = test system: B16F10 cells; assay: Cell proliferation assay (alamarBlue), B16F10; type: cell-based; settings: Mus musculus, B16-F10, 96 hours incubation, inhibition of cell proliferation
Description: (§1) In accordance with the invention, the capability of the substances to inhibit cell proliferation was determined Cell viability was determined using the alamarBlue® reagent (Invitrogen) in a Victor X3 Multilabel Reader (Perkin Elmer). The excitation wavelength was 530 nm and the emission wavelenth […].
The B16F10 cells (ATCC, CRL-6475) were sown at a concentration of 300-500 cells/well in 100 μl growth medium (DMEM with phenol red, 10% FCS) on 96-well microtitre plates.
(§2) After an overnight incubation at 37° C., the fluorescence values (CI values) were determined. The plates were then treated with various substance dilutions (1E-5 M, 3E-6 M, 1E-6M, 3E-7 M, 1E-7 M, 3E-8 M, 1E-8 M) and incubated at 37° C. for 72 (MV4-11-, LOX-IMVI cells), 96 (MOLM-13-, B16F10-, MDA-MB-431-, Caov-3 cells), 120 (MOLP-8-, KMS-12-PE cells) or 168 (LAPC-4 cells) hours. The fluorescence values (CO values) were then determined. For the data analysis, the CI values were subtracted from the CO values and the results were compared between cells treated with different dilutions of the substance or with buffer solution only. These were used to calculate the IC 50 values (substance concentration required for 50% inhibition of cell proliferation).

[4] = test system: LAPC-4 cells; assay: Cell proliferation assay (alamarBlue), LAPC-4; type: cell-based; settings: Homo sapiens, LAPC4; inhibition of cell proliferation, LAPC-4 (prostate cancer), 1 nM methyltrienolone, 168 hours
Description: as §1
The LAPC-4 cells (ATCC, PTA-1441TM) were sown at a concentration of 4000 cells/well in 100 μl growth medium (RPMI1640, 2 mM L-glutamine, 10% cFCS) on 96-well microtitre plates. A day later, the LAPC-4 cells were treated with 1 nM methyltrienolone and various substance dilutions.
as §2

[5] = test system: MDA-MB-231 cells; assay: Cell proliferation assay (alamarBlue), MDA-MB-231; type: cell-based; settings: Homo sapiens; inhibition of cell proliferation, MDA-MB-231 (breast carcinoma), 96 hours
Description: as §1
The MDA-MB-231 cells (DSMZ, ACC 732) were sown at a concentration of 4000 cells/well in 100 μl growth medium (DMEM/Ham's F12 medium, 10% FCS) on 96-well microtitre plates. The Caov-3 cells (ATCC, HTB-75) were sown at a concentration of 2000 cells/well in 100 μl growth medium (MEM Earle's medium, 10% FCS) on 96-well microtitre plates.
as §2

[6] = test system: MOLP-8 cells; assay: Cell proliferation assay (alamarBlue), MOLP-8; type: cell-based; settings: Homo sapiens, 120 hours incubation, inhibition of cell proliferation
Procedure, shortened: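 MOLP-8 cells in RPMI1640 with 20% FCS, 4000 cells/well, treated overnight after seeding with substance at 1E-5 to 1E-8 M for 120 h at 37° C. Viability read by alamarBlue fluorescence (ex 530, em 590); pre-treatment values subtracted, compared with buffer-only cells to derive IC50.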

Row | Structure (SMILES) | IC50 [1] [nM] | IC50 [2] [nM] | IC50 [3] [nM] | IC50 [4] [nM] | IC50 [5] [nM] | IC50 [6] [nM]
1 | CNC(=O)N1N=C(c2ccc(Cl)cc2)c2cc(C3CC3)ccc2CC1C (racemic) [Example 9, (±)-1-(4-chlorophenyl)-8-cyclopropyl-N,4-dimethyl-4,5-dihydro-3H-2,3-benzodiazepine-3-carboxamide] | 120 | 650 | 540 | 430 | 730 | –
2 | CNC(=O)N1N=C(c2ccc(Cl)cc2)c2cc(-c3ccc(S(=O)(=O)NC)cc3)ccc2CC1C (racemic) [Example 10, (±)-1-(4-chlorophenyl)-N,4-dimethyl-8-{4-[(methylamino)sulphonyl]phenyl}-4,5-dihydro-3H-2,3-benzodiazepine-3-carboxamide] | 160 | 310 | 270 | 120 | 260 | –
3 | CNC(=O)N1N=C(c2ccc(Cl)cc2)c2cc(N3CCOCC3)ccc2CC1C (racemic) [Example 11, (±)-1-(4-Chlorophenyl)-N,4-dimethyl-8-(morpholin-4-yl)-4,5-dihydro-3H-2,3-benzodiazepine-3-carboxamide] | 310 | 1910 | 1120 | 450 | 2580 | –
4 | CNC(=O)N1N=C(c2ccc(Cl)cc2)c2cc(N3CCN(C)CC3)ccc2CC1C (racemic) [Example 12, (±)-1-(4-Chlorophenyl)-N,4-dimethyl-8-(4-methylpiperazin-1-yl)-4,5-dihydro-3H-2,3-benzodiazepine-3-carboxamide] | 540 | 1610 | 1320 | 870 | 1850 | –
5 | CNC(=O)N1N=C(c2ccc(Cl)cc2)c2cc(N3CCCCC3)ccc2CC1C (racemic) [Example 13] | 210 | 1440 | 920 | 900 | 1300 | –
6 | CNC(=O)N1N=C(c2cccnc2)c2cc(OC)ccc2CC1C (racemic) [Example 14, (±)-8-Methoxy-N,4-dimethyl-1-(pyridin-3-yl)-4,5-dihydro-3H-2,3-benzodiazepine-3-carboxamide] | 590 | 3070 | 2630 | 1650 | 3640 | –
7 | CNC(=O)N1N=C(c2ccc(Cl)cc2)c2cc(OC(F)(F)F)ccc2C[C@@H]1C [Example 1.1, (4S)-1-(4-Chlorophenyl)-N,4-dimethyl-8-(trifluoromethoxy)-4,5-dihydro-3H-2,3-benzodiazepine-3-carboxamide] | 60 | 390 | 390 | 600 | 530 | 510
8 | CNC(=O)N1N=C(c2ccc(Cl)cc2)c2cc(OC(F)(F)F)ccc2C[C@H]1C [Example 1.2, (4R)-1-(4-Chlorophenyl)-N,4-dimethyl-8-(trifluoromethoxy)-4,5-dihydro-3H-2,3-benzodiazepine-3-carboxamide] | 2500 | > 10000 | > 10000 | 5170 | > 10000 | –
9 | CNC(=O)N1N=C(c2ccc(-c3c(C)noc3C)cc2)c2cc(OC)c(OC)cc2C[C@H]1C [Example 2.1, (4R)-1-[4-(3,5-Dimethyl-4-isoxazolyl)phenyl]-7,8-dimethoxy-N,4-dimethyl-4,5-dihydro-3H-2,3-benzodiazepine-3-carboxamide] | 250 | 1510 | 1050 | 710 | 1390 | –
